Measured values reported in US20040043420A1, “Method of identifying conformation-sensitive binding peptides and uses thereof” (priority 2003, published 2004).

T1: androgen receptor (Homo sapiens, UniProt P10275)
T1 sequence (P10275 1-920): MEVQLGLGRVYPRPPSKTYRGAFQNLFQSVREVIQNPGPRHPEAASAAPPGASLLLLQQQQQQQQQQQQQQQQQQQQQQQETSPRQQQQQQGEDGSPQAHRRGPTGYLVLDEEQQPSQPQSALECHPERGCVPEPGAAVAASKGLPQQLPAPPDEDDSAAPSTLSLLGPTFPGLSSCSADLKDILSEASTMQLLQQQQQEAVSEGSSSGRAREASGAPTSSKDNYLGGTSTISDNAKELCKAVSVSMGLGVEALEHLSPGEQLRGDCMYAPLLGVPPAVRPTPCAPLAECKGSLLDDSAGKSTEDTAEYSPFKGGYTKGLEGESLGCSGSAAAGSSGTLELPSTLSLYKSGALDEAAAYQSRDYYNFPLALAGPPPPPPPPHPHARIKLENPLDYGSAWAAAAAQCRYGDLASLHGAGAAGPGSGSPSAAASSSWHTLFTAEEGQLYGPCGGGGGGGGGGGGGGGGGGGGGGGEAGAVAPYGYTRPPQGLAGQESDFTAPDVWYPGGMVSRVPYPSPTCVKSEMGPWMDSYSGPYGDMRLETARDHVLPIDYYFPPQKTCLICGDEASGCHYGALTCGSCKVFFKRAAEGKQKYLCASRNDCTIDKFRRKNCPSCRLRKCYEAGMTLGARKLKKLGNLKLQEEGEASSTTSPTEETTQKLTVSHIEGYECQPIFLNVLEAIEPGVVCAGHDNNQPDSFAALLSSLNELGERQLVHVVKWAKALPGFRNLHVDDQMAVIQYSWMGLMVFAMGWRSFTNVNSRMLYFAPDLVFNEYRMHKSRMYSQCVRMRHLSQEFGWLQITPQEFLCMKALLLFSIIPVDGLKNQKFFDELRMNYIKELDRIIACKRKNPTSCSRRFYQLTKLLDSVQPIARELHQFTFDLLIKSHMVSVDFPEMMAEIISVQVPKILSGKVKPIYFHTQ

T2: ER α (UniProt P03372 1-595, limits assumed)
T2 construct: also called estrogen receptor α; ERα-ERE
T2 sequence (looked up): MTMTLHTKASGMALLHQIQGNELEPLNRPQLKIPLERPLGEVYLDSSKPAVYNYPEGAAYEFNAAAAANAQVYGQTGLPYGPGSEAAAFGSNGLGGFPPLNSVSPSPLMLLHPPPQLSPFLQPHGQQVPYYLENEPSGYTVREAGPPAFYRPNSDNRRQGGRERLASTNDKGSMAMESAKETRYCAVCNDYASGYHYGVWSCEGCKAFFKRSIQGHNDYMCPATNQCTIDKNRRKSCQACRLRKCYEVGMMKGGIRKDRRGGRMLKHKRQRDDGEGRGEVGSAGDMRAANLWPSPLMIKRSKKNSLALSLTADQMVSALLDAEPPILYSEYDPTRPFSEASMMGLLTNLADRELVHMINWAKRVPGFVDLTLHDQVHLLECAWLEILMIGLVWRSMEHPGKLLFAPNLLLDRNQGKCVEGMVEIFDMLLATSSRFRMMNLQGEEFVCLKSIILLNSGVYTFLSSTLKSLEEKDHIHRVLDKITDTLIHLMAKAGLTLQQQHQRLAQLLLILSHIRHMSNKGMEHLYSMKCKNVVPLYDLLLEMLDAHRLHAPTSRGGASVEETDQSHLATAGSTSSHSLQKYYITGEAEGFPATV

T3: Gal4 transcriptional activation domain (AD) fused in frame with AR (yeast, UniProt P10275 1-920, limits assumed)
T3 sequence (looked up): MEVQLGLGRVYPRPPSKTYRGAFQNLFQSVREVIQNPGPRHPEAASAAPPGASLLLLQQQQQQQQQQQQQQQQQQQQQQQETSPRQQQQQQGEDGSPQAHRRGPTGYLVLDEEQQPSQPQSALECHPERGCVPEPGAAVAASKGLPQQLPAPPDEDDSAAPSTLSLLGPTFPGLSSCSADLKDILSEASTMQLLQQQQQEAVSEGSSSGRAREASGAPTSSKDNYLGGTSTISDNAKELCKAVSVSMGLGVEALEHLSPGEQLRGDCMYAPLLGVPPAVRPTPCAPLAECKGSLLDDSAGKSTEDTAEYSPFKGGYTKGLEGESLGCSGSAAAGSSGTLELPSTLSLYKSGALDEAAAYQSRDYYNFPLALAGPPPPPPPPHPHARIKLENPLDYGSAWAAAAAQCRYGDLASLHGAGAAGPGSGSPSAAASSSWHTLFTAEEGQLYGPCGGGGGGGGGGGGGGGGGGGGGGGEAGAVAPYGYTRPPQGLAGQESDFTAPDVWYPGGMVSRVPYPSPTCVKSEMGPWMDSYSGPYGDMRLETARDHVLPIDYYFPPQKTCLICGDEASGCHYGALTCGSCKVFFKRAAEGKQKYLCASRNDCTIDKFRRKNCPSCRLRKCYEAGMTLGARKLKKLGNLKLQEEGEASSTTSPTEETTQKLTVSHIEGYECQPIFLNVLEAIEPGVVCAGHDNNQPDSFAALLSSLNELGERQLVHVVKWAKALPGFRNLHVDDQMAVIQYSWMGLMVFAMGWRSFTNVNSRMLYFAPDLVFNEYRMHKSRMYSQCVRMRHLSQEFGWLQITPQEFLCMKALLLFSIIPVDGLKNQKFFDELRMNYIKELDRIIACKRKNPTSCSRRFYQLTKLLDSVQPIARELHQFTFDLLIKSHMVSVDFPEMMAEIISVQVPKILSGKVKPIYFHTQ


Tests used:
[1] = biological target: T1, androgen receptor; type: cell-based; parameters: expressed in transfected cells; conditions: for Mammalian Cell Specificity Graph (FIG. 4): DHT: ligand DHT; for Mammalian Cell Specificity Graph (FIG. 4): MPA: ligand MPA; for Mammalian Cell Specificity Graph (FIG. 4): RU486: ligand RU486
From the text: We used a mammalian two-hybrid system to determine specificities of the AR-binding peptides previously identified, through screening of the aforementioned yeast library, as ligand-dependent in their binding activity. Ligand was provided to the cells so the interaction could be observed. The human hepatoma cell line, Huh-7, was used as the recipient of two-hybrid vectors, pM and pVP16 (Clontech) (FIGS. 6A and 6B), containing fusions with peptide and AR, respectively. According to Clontech literature, the Clontech vectors pM and VP16 generate fusions of protein X with the GAL4 DNA-BD and fusions of protein Y with the VP16AD, in the Mammalian MM Two-Hybrid Assay Kit (#K1602-1). (Note: pM and VP16 contain unique cloning sites in the same order and reading frame as the DNA-BD and AD, respectively, vectors in the yeast […] Two-Hybrid Systems.) A third vector, pG5CAT, provides a CAT reporter gene under the control of a GAL4-responsive element and minimal promoter of the adenovirus E1b. The three vectors are cotransfected into any suitable mammalian host cell line by standard methods. The interaction between proteins X and Y is then assayed by measuring CAT gene expression by any standard method. In the absence-of activation (i.e., no protein-protein interaction), the minimal E1b promoter will not express significant levels of CAT.
Briefly, cells are seeded in a 24-well culture plate to a density of 50-80% confluence in phenol red-free media containing charcoal-dextran stripped fetal bovine serum (10%). Following incubation overnight, cells are transfected with plasmids pM-peptide, pVP16-AR, pCMV-b-gal, and p5XGAL-Luc3 DNAs using lipofectamine 2000 (LifeTech) according to the manufacturer's protocol. Transfections are allowed to proceed for 6 hours and the transfection media is aspirated and replaced with recovery media for 18 hours. Following the recovery period, cells are treated with compound for 24 hours prior to cell harvesting. Cells are washed with PBS and then lysed using the lysis buffer from the Galacto-Light Plus β-galactosidase assay kit (Tropix). Assays for luciferase and β-galactosidase were performed as described by the manufacturer. Peptide/AR interactions are described in terms of the luciferase activity normalized for transfection efficiency using β-galactosidase activity (see FIG. 4A). Two types of useful information arose from these methods: 1) we generated a panel of useful peptide probes to analyze the conformational state of AR, and 2) we “fingerprinted” AR modulators with respect to AR conformation (FIG. 4B). […] FIG. 4B is the converse of 4A. It compares the ability of six ligands (DHT, MPA, CYP, RU486, FLUT and DHEAs to interact with AR in the presence of each of four peptides (D30, 5G11, B8H3 and […]). Thus, it is a “fingerprint” of each of the six ligands using a four peptide panel. (Note that “1269” and D30″ refer to the same peptide.)

[2] = biological target: T1, androgen receptor; assay: Yeast two-hybrid screening of unbiased X15 peptide library, ligand-induced β-galactosidase activity (FIG. 3, Table 503); type: cell-based; parameters: expressed in transfected cells; host or cells: Saccharomyces cerevisiae PJ69-4α; conditions: for Yeast Specificity Graph (FIG. 3): CPA: ligand CPA; for Yeast Specificity Graph (FIG. 3): DHT: ligand DHT; for Yeast Specificity Graph (FIG. 3): RU: ligand RU; for Yeast Specificity Graph (FIG. 3): No Lig: no ligand; for Yeast Specificity Graph (FIG. 3): MPA: ligand MPA; for Yeast Specificity Graph (FIG. 3): Test: ligand Test
From the text: Our library contained predominantly 15 random amino acid residues/peptide in order to identify motifs that might interact with nuclear receptor domains. If ligand is provided to the cells, one can screen for peptides that interact with the ligand-bound receptor. […] Included at the ends of the oligonucleotide were the synthetic restriction endonuclease cleavage sites, EcoRI or Mfe I (5′ end) and Sal I (3′ end). Oligonucleotides were annealed, then cleaved with excess restriction endonuclease and purified on agarose gels. The purified set of oligonucleotides was subcloned as an in-frame carboxy-terminal fusion to a Gal4 DNA binding domain (plasmid vector pMA424 derivative). […] The transformation mix was divided and grown on plates of selective media containing ligand and 25 mM 3-aminotriazole at 30° C. until colonies appeared in 3-7 days. […] Dihydrotestosterone (DHT) and medroxyprogesterone (MPA) were added to the media at 100 nM to identify peptides that interact with the receptor in the presence of ligand. After colonies appeared they were picked and dispersed into individual wells of a 96-well plate containing rich media (YPD).
To determine ligand dependence, two microliter aliquots were removed from the cell suspension, and arrayed and spotted onto each of two rectangular agar plates, one with 100 nM ligand and one without ligand. Growth was monitored daily.
A secondary test of ligand dependent activation was performed using the integrated GAL4-driven lacZ gene. Cell suspensions of the initial positive clones were diluted 20-fold into 20 microliters of rich media in a microplate and grown overnight at 30° C. in the presence and absence of ligand. Microplates were centrifuged for 5 minutes at 3000 rpm in a swinging table top centrifuge to pellet the yeast cells, and the overlying media was aspirated. […] An OD650 density determination was made to normalize the β-galactosidase activity. β-galactosidase activity was monitored following the addition of buffer containing chlorophenol red-1-galactopyranoside (CPRG) (Boehringer Mannheim) substrate at a final concentration of 0.5 mM. […] The maximum slope value of this measurement was normalized to cell density from the initial OD650 value, and the relative ligand dependence of β-galactosidase was determined by comparing the values plus and minus ligand.
In FIG. 3, all of these ligands were tested. The plasmids from true positives were extracted using standard yeast extraction protocols and re-transformed to verify the positive phenotype.

[3] = biological target: T2, ER α; assay: phage isolated on ERα-ERE; Estradiol
[4] = biological target: T3, Gal4 transcriptional activation domain …; assay: cell-based or functional assay

Molecule	Yeast Specificity Graph (FIG. 3): CPA [2]	Yeast Specificity Graph (FIG. 3): DHT [2]	Yeast Specificity Graph (FIG. 3): RU [2]	Yeast Specificity Graph (FIG. 3): No Lig [2]	binding result [3]	further results
EFRSSVFEQMYLCTGGSLDLOPS* [B5G11]	0.9726	3.964	0.9	0.6382		Mammalian Cell Specificity Graph (FIG. 4): CYP. [1]: 4.462 Relative Light Units; Mammalian Cell Specificity Graph (FIG. 4): DHT [1]: 15.84 Relative Light Units; Mammalian Cell Specificity Graph (FIG. 4): MPA [1]: 8.029 Relative Light Units; Mammalian Cell Specificity Graph (FIG. 4): RU486 [1]: 0.1051 Relative Light Units; Mammalian Cell Specificity Graph (FIG. 4): no compound [1]: 0.05028 Relative Light Units
HPTHSSRLWELLMEATPTM [D30]						Mammalian Cell Specificity Graph (FIG. 4): CYP. [1]: 11.18 Relative Light Units; Mammalian Cell Specificity Graph (FIG. 4): DHT [1]: 12.59 Relative Light Units; Mammalian Cell Specificity Graph (FIG. 4): MPA [1]: 15.62 Relative Light Units; Mammalian Cell Specificity Graph (FIG. 4): RU486 [1]: 0.8461 Relative Light Units; Mammalian Cell Specificity Graph (FIG. 4): no compound [1]: 0.03854 Relative Light Units
EFRQSFVSEILGGGWLPLDLOPS [M2H3]	8.592	24.12	6.8	2.53		Fold induction [2]: 10; Yeast Specificity Graph (FIG. 3): MPA [2]: 19.25; Yeast Specificity Graph (FIG. 3): Test [2]: 26.57
EFHSRLRVEVVSWGIGSTCSQANSGRISYDL* [B8H3]	0.3927	3.807	−0.0	0.1737		Mammalian Cell Specificity Graph (FIG. 4): CYP. [1]: 10.47 Relative Light Units; Mammalian Cell Specificity Graph (FIG. 4): DHT [1]: 11.6 Relative Light Units; Mammalian Cell Specificity Graph (FIG. 4): MPA [1]: 11.33 Relative Light Units; Mammalian Cell Specificity Graph (FIG. 4): RU486 [1]: 3.879 Relative Light Units; Mammalian Cell Specificity Graph (FIG. 4): no compound [1]: 0.1316 Relative Light Units; Fold induction [2]: 22
EFPELLAMTRWGRHAALLEPQRLPPPRTTTQPQTEFERMFFFTRPMRTTGLLDLOPS* [B2A7]	0.2919	1.719	0.5	0.3711		
EFVNWDAVVPWSELVALLDLOPS [B8A10]	0.3955	0.6163	0.4	0.8753		Fold induction [2]: 1
EFRFPFHEMVREWESMGLERVRYAEP [M4D1]	−0.03955	0.3948	0.1	0		Yeast Specificity Graph (FIG. 3): MPA [2]: 1.698; Yeast Specificity Graph (FIG. 3): Test [2]: 0.1337
HSHNHHSPWLFRLLGG [E1-1]					binds	
HSHPHHSHLLYKLMGG [E1-3]					binds	
HSHPLPPLLSRLLTGG [E1-4]					binds	
SRSPILTHLLSLGSR [2E]					binds	
SSHGILWRLLSEGSR [9E]					binds	
B23H12 (peptide) MKLLSSIEQACDICRLKKLKCSKEKPKCAKCLKNNWECRYSPKTKRSPLTRAHLTEVESRLERLEQLFLLIFPREDLDMILKMDSLQDIKALLTGLFVQDNVNKDAVTDRLASVETDMPLTLRQHRISATSSSEESSNKGQRQLTVSEFPELLAMTRWGRHAALLEPQRLPPPRTTTQPQTEFERMFFFTRPMRTTGLLDLQPS						β-galactosidase activity (yeast two-hybrid), MPA [4]: 1.31; β-galactosidase activity (yeast two-hybrid), Test [4]: 2.44
SSTGILWKLLTAESR [3E]					binds	
SRLTCLLQSNGWDSEQCSR [E1-7]					binds	
